Paper PMC9743467 (Matter, 2022)

Experiments:
VSV-G PsV = type: cell-based, vesicular stomatitis virus
SARS-CoV PsV = type: cell-based
[1] = test system: SARS-CoV-2 (USA-WA1/2020); type: in vivo, K18-hACE2 mice infected with SARS-CoV-2; details: n = 8
SARS-CoV-2 PsV [2] = type: cell-based
SARS-CoV-2 PsV [3] = type: cell-based; remark: listed apart in the source
[4] = source not given; cited from earlier work
[5] = type: in vivo, K18-hACE2 mice; details: n = 8

ACE2: recombinant human angiotensin-converting enzyme 2, soluble, R&D Systems
inhibition of VSV-G PsV infection (VSV-G PsV): This trend is not observed
inhibition of SARS-CoV PsV infection (SARS-CoV PsV): strongly inhibited
viral load in SARS-CoV-2-infected lungs [1]: negligible effect on viral load
time at which inhibition equals that of empty filaments (SARS-CoV-2 PsV [2]): ≤ 6 h
inhibition of SARS-CoV-2 PsV infection (SARS-CoV-2 PsV [3]): strongly inhibited
pI [4]: ≈ 5.36
body weight loss [5]: similar
